{"source": "patent US12109214B2", "about": "“Formulation and treatment methods” (PRODRUGXTEND PTY LTD, priority 2015, dated 2024)", "key": {"DSS induced colitis": {"system": "DSS induced colitis", "experiment": "6-MP in DSS induced colitis over one month", "assay_type": "in vivo, mice", "conditions": "large doses of 6-MP", "source_text": "This discovery was particularly unexpected as these mice lack the ability to form TGNs (the active metabolites) through the conventional metabolic route in the liver and leukocytes. However, formation of the active metabolite was discovered outside the generally understood mechanism. The magnitude of the reduction in disease activity was similar to that found in wild-type mice in which colitis had been induced with DSS. […] Conversion of the related thiopurine, 6-MP, to 6-TGTP was considerably less over the same period consistent with rate-limiting IMPDH in the purine salvage pathway of bacteria."}, "[1]": {"system": "Escherichia coli, Enterococcus faecalis and Bacteroides thetaiotamicron", "experiment": "Bacterial conversion to thioguanine nucleotides (6-TGN) in vitro", "assay_type": "in vitro ADME", "conditions": "log phase cultures of all three strains, 1 mM, 120 minutes", "procedure": "Bacterial metabolism of 6-TG was investigated in vitro using the representative gut bacteria Escherichia coli, Enterococcus faecalis and Bacteroides thetaiotamicron. […] In contrast, generation of 6-TGN was minimal over this time period when cultures were incubated with 1 mM 6-MP."}, "[2]": {"system": "Winnie mice (spontaneous colitis)", "experiment": "Spontaneous colitis in Winnie mice, low dose gavage 28 days", "assay_type": "in vivo", "source_text": "(§1) The vehicle control was water."}, "[3]": {"system": "HeLa cells expressing LC3-GFP infected with SL1344", "experiment": "Antibacterial autophagy assay", "assay_type": "cell-based", "conditions": "6-TG 50 μM"}, "[4]": {"system": "Winnie mice (spontaneous colitis)", "experiment": "Spontaneous colitis in Winnie mice, daily gavage up to 14 days", "assay_type": "in vivo", "source_text": "as §1\nBoth the colitis and its improvement with treatment [FIGS. 2A and 2(B)] were more marked in the distal colon (DC) of the Winnie mice."}, "[5]": {"system": "Hprt−/− mice (DSS induced colitis)", "experiment": "Chronic DSS induced colitis in Hprt-/- mice"}, "RaW and Winnie mice": {"system": "RaW and Winnie mice", "experiment": "Colitis in Winnie and RaW (Rag-/- x Winnie) mice", "assay_type": "in vivo", "source_text": "as §1\nT and B lymphocytes are not required for the occurrence of spontaneous colitis in Winnie mice. Winnie x Rag^−/− (RaW) mice are Winnie mice that lack T and B lymphocytes. RaW mice spontaneously develop a colitis phenotype with more proximal disease than Winnie [Eri, R D et al; Mucosal. Immunol. 4, 354-364 (2011)]."}, "[6]": {"system": "Salmonella typhimurium (SL1344) in HeLa cells", "experiment": "Bacterial replication assay"}, "[7]": {"system": "Winnie mice (spontaneous colitis)", "procedure": "All the animal experiments were approved by the University of Queensland Animal Ethics Committee. C57B1/6 wild-type (WT) mice were purchased from the Animal Resource Authority, Western Australia and the Hprt^−/−, Winnie and RaW were bred in-house in a pathogen free animal facility. […] 6-MP (MW 170, 6-MP monohydrate, ex Sigma-Aldrich) was dissolved in water. The vehicle control was water.\nFor DSS induced colitis in Hprt^−/− mice the composite disease activity index (DAI) score was used and this comprised diarrhoea, rectal bleeding and body weight percent loss subscores (0<1% loss; 1=1-5% loss; 2=5-15% loss; 3>15% loss)."}, "[8]": {"system": "C57B1/6 WT mice (chronic DSS induced colitis)", "experiment": "Chronic DSS-induced colitis in C57Bl/6 WT mice", "assay_type": "in vivo", "procedure": "as §1\nDextran sodium sulphate (DSS) (36-50 kDa; MP Biochemicals) was administered in the drinking water chronically [0.5% (w/v) for 4 cycles of 5 days on, followed by either 7 or 9 days off]."}, "[9]": {"system": "primary fibroblasts isolated from WT and Hprt−/− mice", "experiment": "Autophagy (LC3-II/β-actin) in primary fibroblasts", "assay_type": "cell-based", "procedure": "HeLa, HCT116, HT29, HepG2 and RAW cells were obtained from ATCC and grown in DMEM supplemented with GlutaMAX (Life Technologies), 10% fetal calf serum and 20 μg/ml penicillin/streptomycin. HeLa cells stably expressing LC3-GFP have been described previously (Kabeya Y et al., The EMBO Journal, 2000, 19 (2), 5720-5728; Birmingham C L et al, J. Biol. Chem., 2006, 281 (16), […]). Primary fibroblasts isolated from WT and Hprt^−/− mice were generated from ear punch samples after dissociation with trypsin and cultured in DMEM supplemented with Glutamax and 20% fetal calf serum with antibiotics and passaged up to four times to ensure that they were axenic.\nFollowing treatment cells were treated with TNN (Tris-HCl, NaCl, NP40) lysis buffer. […] Following transfer to PVDF membranes (Invitrogen), detection was performed using rabbit anti-LC3 primary (Sigma), mouse anti-Actin (Sigma) and appropriate fluorescent secondary antibodies (LI-COR Biosciences) and imaged on a LICOR fluorescent imaging system."}, "[10]": {"conditions": "PC and DC of RaW mice and Winnie controls, 6-TG 2.5 mg/kg"}, "[11]": {"conditions": "RaW and Winnie mice, 6-TG 2.5 mg/kg up to 14 days"}, "[12]": {"conditions": "WT mice 0.5% DSS, 6-TG 0.5 mg/kg gavage 28 days"}}}
{"smiles": "Sc1ncnc2nc[nH]c12", "note": "[Formulation 6-MP, 3,7-dihydropurine-6-thione]", "values": [{"measurement": "colitis", "setting": "DSS induced colitis", "value": "no reduction in colitis"}, {"measurement": "6-TGN (6-TGMP, 6-TGDP and 6-TGTP) generation in bacterial pellets", "setting": "[1]", "value": "minimal"}]}
{"smiles": "Nc1nc2nc[nH]c2c(=S)[nH]1", "note": "[Formulation 6-TG, 2-amino-6,7-dihydro-3H-purine-6-thione]", "values": [{"measurement": "blinded histological colitis scores PC and DC", "setting": "[2]; 6-TG 0.5 mg/kg/d", "value": "improved blinded histological colitis scores in both PC and DC"}, {"measurement": "combined diarrhoea (diarrhoea and rectal bleeding) score", "setting": "[2]; 6-TG 0.5 mg/kg/d or 6-MP 2.5 mg/kg/d", "value": "improved with 6-TG"}, {"measurement": "peripheral blood leukocytes", "setting": "[2]; 6-TG 0.5 mg/kg/d or 6-MP 2.5 mg/kg/d, P=0.09", "value": "tended to reduce peripheral blood leukocytes"}, {"measurement": "LC3 co-localization with intracellular bacteria", "setting": "[3]", "value": "significantly increased LC3 co-localization"}, {"measurement": "spontaneous colitis (histological colitis)", "setting": "[4]; 6-TG 1-2.5 mg/kg daily gavage up to 14 days", "value": "ameliorated the spontaneous colitis in a dose-dependent manner"}, {"measurement": "pharmacodynamic effect (time to improved colonic histology)", "setting": "[4]; oral and intra-rectal TG, 1 or 2.5 mg/kg/day", "value": "less than two weeks"}, {"measurement": "disease activity", "setting": "[5]; Hprt−/− mice, 0.5% DSS, 6-TG 0.5 mg/kg oral gavage day 28 to 52", "value": "rapid and appreciable reduction in disease activity"}, {"measurement": "immunosuppression", "setting": "[5]; Hprt−/− mice, 6-TG 0.5 mg/kg oral gavage", "value": "not associated with immunosuppression"}, {"measurement": "MLN cell counts", "setting": "[5]; Hprt−/− mice, DSS, 6-TG 0.5 mg/kg", "value": "not depressed by 6-TG"}, {"measurement": "CD3e+CD4+, CD11b+ and CD11c+MHCII+ subset numbers in the MLN", "setting": "[5]; untreated or DSS exposed Hprt−/− mice, 6-TG 0.5 mg/kg", "value": "not decreased"}, {"measurement": "Muc2 expression", "setting": "RaW and Winnie mice; [10]", "value": "increased Muc2 expression"}, {"measurement": "inflammation (Ifn-γ, Il-1b)", "setting": "RaW and Winnie mice; [10]", "value": "decreased inflammation"}, {"measurement": "blinded histological PC and DC colitis scores", "setting": "RaW and Winnie mice; [11]", "value": "improved blinded histological PC and DC colitis scores"}, {"measurement": "goblet cell morphology", "setting": "RaW and Winnie mice; [11]", "value": "restored goblet cell morphology"}, {"measurement": "intracellular replication of the bacteria (luminescence)", "setting": "[6]; HeLa cells, 50 or 100 μM 6-TG, 12 h post infection", "value": "significantly decreased intracellular replication"}, {"measurement": "bacterial growth (OD 600 absorbance)", "setting": "[6]; over the 12 h period", "value": "did not alter bacterial growth"}, {"measurement": "colitis in mid-colon or proximal colon", "setting": "[7]; intra-rectal 1 mg/kg daily 14 days", "value": "no improvement"}, {"measurement": "blinded histological scoring of the distal colon", "setting": "[7]; intra-rectal 1 mg/kg daily 14 days, P<0.01", "value": "striking improvement"}, {"measurement": "combined diarrhea score", "setting": "[7]; intra-rectal 1 mg/kg daily, from day 11, vs 6-MP and vehicle", "value": "statistically significant improvement"}, {"measurement": "DSS colitis, total colitis scores, immune and epithelial damage subscores", "setting": "[8]; [12]", "value": "improved with 6-TG"}, {"measurement": "colon weight", "setting": "[8]; [12]", "value": "significantly improved"}, {"measurement": "combined diarrhoea score", "setting": "[8]; [12]", "value": "significantly improved"}, {"measurement": "peripheral white blood cells", "setting": "[8]; WT mice DSS-treated and untreated, 6-TG 0.5 mg/kg gavage 28 days", "value": "decreased peripheral white blood cells"}, {"measurement": "body weight gain", "setting": "[8]; juvenile C57B1/6 WT mice, irrespective of DSS, 6-TG 0.5 mg/kg", "value": "reduction of expected body weight gain"}, {"measurement": "6-TGN (6-TGMP, 6-TGDP and 6-TGTP) generation in bacterial pellets", "setting": "[1]", "value": "found in the bacterial pellets"}]}
{"smiles": "CCC(=O)N1CCN(c2ccc(-n3c(=O)ccc4cnc5ccc(-c6cnc7ccccc7c6)cc5c43)cc2C(F)(F)F)CC1", "note": "[Torin1]", "values": [{"measurement": "autophagy induction", "setting": "[9]", "value": "autophagy could be induced"}]}
